Patent US20100076015A1, “Aminopyridine Derivatives” (VANTIA LIMITED, priority 2008, published 2010)
pIC50: −log10 of the molar value.

target: T1, Human KLK1 (Homo sapiens, UniProt P06870); experiment: Determination of the IC50 for KLK1 (fluorogenic substrate H-DVal-Leu-Arg-AFC); assay type: biochemical; conditions: 37° C.
T1 construct: purchased Callbiochem (Calbiochem)
Summary of the method: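 Test compound at various concentrations was incubated with human KLK1 and the fluorogenic substrate H-DVal-Leu-Arg-AFC at 37° C. Absorbance change at 410 nm gave the initial reaction rate, from which IC50 was obtained.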

T1 sequence (P06870 25-262): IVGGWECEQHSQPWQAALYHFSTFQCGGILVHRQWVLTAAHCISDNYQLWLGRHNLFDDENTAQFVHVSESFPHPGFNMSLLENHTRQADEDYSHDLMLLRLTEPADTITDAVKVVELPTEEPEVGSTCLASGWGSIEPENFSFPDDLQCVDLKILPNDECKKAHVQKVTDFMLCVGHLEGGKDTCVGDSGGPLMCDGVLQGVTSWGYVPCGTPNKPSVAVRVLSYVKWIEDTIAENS

Structure (SMILES)	pIC50
CCC(C)[C@@H](NC)C(=O)N[C@@H](Cc1csc2ccccc12)C(=O)NCc1ccc(N)nc1 (stereo partly drawn) [Example 51, (R)-3-Methyl-2-methylamino-pentanoic acid {(S)-1-[(6-amino-pyridin-3-ylmethyl)-carbamoyl]-2-benzo[b]thiophen-3-yl-ethyl}-amide]	9.59
CCC(C)[C@@H](N)C(=O)N[C@@H](Cc1ccc(O)cc1)C(=O)NCc1ccc(N)nc1 (stereo partly drawn) [Example 37, (R)-2-Amino-3-methyl-pentanoic acid [(S)-1-[(6-amino-pyridin-3-ylmethyl)-carbamoyl]-2-(4-hydroxy-phenyl)-ethyl]-amide]	6.20
CCN(C)[C@@H](C)C(=O)N[C@@H](CC1CCCCC1)C(=O)NCc1ccc(N)nc1 [Example 384, (S)—N-{(S)-1-[(6-Amino-pyridin-3-ylmethyl)-carbamoyl]-2-cyclohexyl-ethyl}-2-(ethyl-methyl-amino)-propionamide]	8.01
Nc1ccc(CNC(=O)[C@H](Cc2ccc(F)c(F)c2)NC(=O)c2nc3ccccc3[nH]2)cn1 [Example 328, 1H-Benzoimidazole-2-carboxylic acid [(S)-1-[(6-amino-pyridin-3-ylmethyl)-carbamoyl]-2-(3,4-difluoro-phenyl)-ethyl]-amide]	6.75
CCCN(CCC)[C@@H](C)C(=O)N[C@@H](CC1CCCCC1)C(=O)NCc1ccc(N)nc1 [Example 385, (S)—N-{(S)-1-[(6-Amino-pyridin-3-ylmethyl)-carbamoyl]-2-cyclohexyl-ethyl}-2-dipropylaminopropionamide]	6.97
CC(C)[C@H](C(=O)N[C@@H](Cc1ccc(F)c(F)c1)C(=O)NCc1ccc(N)nc1)N(C)C [Example 359, (R)—N-[(S)-1-[(6-Amino-pyridin-3-ylmethyl)-carbamoyl]-2-(3,4-difluoro-phenyl)-ethyl]-2-dimethylamino-3-methyl-butyramide]	8.30
CN1CCC[C@@H]1C(=O)N[C@@H](Cc1ccc2ccccc2n1)C(=O)NCc1ccc(N)nc1 [Example 114, (R)-1-Methyl-pyrrolidine-2-carboxylic acid {(S)-1-[(6-amino-pyridin-3-ylmethyl)-carbamoyl]-2-quinolin-2-yl-ethyl}-amide]	7.55
CCC(C)[C@@H](N)C(=O)N[C@@H](Cc1csc2ccccc12)C(=O)NCc1ccc(N)nc1 (stereo partly drawn) [Example 41, (R)-2-Amino-3-methyl-pentanoic acid {(S)-1-[(6-amino-pyridin-3-ylmethyl)-carbamoyl]-2-benzo[b]thiophen-3-yl-ethyl}-amide]	9.12
CN1CCC[C@H]1C(=O)N[C@@H](CC1CCCCC1)C(=O)NCc1ccc(N)nc1 [Example 382, (S)-1-Methyl-pyrrolidine-2-carboxylic acid {(S)-1-[(6-amino-pyridin-3-ylmethyl)-carbamoyl]-2-cyclohexyl-ethyl}-amide]	7.31
CNCC(=O)N[C@@H](CC1CCCC2CCCCC21)C(=O)NCc1ccc(N)nc1 (stereo partly drawn) [Example 19, (S)—N-(6-Amino-pyridin-3-ylmethyl)-3-(decahydro-naphthalen-1-yl)-2-(2-methylamino-acetylamino)-propionamide]	7.67
Cc1cc[nH]c1C(=O)N[C@@H](Cc1ccc(F)c(F)c1)C(=O)NCc1ccc(N)nc1C [Example 286, 3-Methyl-1H-pyrrole-2-carboxylic acid [(S)-1-[(6-amino-2-methyl-pyridin-3-ylmethyl)-carbamoyl]-2-(3,4-difluoro-phenyl)-ethyl]-amide]	8.37
C[C@@H](N)C(=O)N[C@@H](CC1CCCC2CCCCC21)C(=O)NCc1ccc(N)nc1 (stereo partly drawn) [Example 18, (R)-2-Amino-N-[(S)-1-[(6-amino-pyridin-3-ylmethyl)-carbamoyl]-2-(decahydro-naphthalen-1-yl)-ethyl]-propionamide]	8.30
CCN(CC)CC(=O)N[C@@H](Cc1ccc(F)cc1)C(=O)NCc1ccc(N)nc1 [Example 380, (S)—N-(6-Amino-pyridin-3-ylmethyl)-2-(2-diethylamino-acetylamino)-3-(4-fluoro-phenyl)-propionamide]	7.86
Nc1ccc(CNC(=O)[C@H](Cc2ccc(F)c(F)c2)NC(=O)[C@H]2CCCN2)cn1 [Example 72, (R)-Pyrrolidine-2-carboxylic acid [(S)-1-[(6-amino-pyridin-3-ylmethyl)-carbamoyl]-2-(3,4-difluoro-phenyl)-ethyl]-amide]	8.14
CCOc1ccc(C[C@H](NC(=O)c2[nH]c(C)cc2C)C(=O)NCc2ccc(N)nc2)cc1 [Example 255, 3,5-Dimethyl-1H-pyrrole-2-carboxylic acid [(S)-1-[(6-amino-pyridin-3-ylmethyl)-carbamoyl]-2-(4-ethoxy-phenyl)-ethyl]-amide]	6.98
Nc1ccc(CNC(=O)[C@H](Cc2ccc(Cl)c(Cl)c2)NC(=O)CN2CCCCC2)cn1 [Example 404, (S)—N-(6-Amino-pyridin-3-ylmethyl)-3-(3,4-dichloro-phenyl)-2-(2-piperidin-1-yl-acetylamino)-propionamide]	7.48

Structure (SMILES)	pIC50
CC(C)[C@@H](N)C(=O)N[C@@H](Cc1cccc2ccccc12)C(=O)NCc1ccc(N)nc1 [Example 22, (R)-2-Amino-N-{(S)-1-[(6-amino-pyridin-3-ylmethyl)-carbamoyl]-2-naphthalen-1-yl-ethyl}-3-methyl-butyramide]	8.66
CN1CCC[C@@H]1C(=O)N[C@@H](CC1CCCCC1)C(=O)NCc1ccc(N)nc1 [Example 115, (R)-1-Methyl-pyrrolidine-2-carboxylic acid {(S)-1-[(6-amino-pyridin-3-ylmethyl)-carbamoyl]-2-cyclohexyl-ethyl}-amide]	7.71
Nc1ccc(CNC(=O)[C@H](Cc2ccc(F)c(F)c2)NC(=O)CN2CCCCC2)cn1 [Example 170, (S)—N-(6-Amino-pyridin-3-ylmethyl)-3-(3,4-difluoro-phenyl)-2-(2-piperidin-1-yl-acetylamino)-propionamide]	7.78
Nc1ccc(CNC(=O)[C@H](Cc2cccc(C(F)(F)F)c2)NC(=O)CN2CCCCC2)cn1 [Example 420, (S)—N-(6-Amino-pyridin-3-ylmethyl)-2-(2-piperidin-1-yl-acetylamino)-3-(3-trifluoromethyl-phenyl)-propionamide]	6.93
Cc1ccc(C[C@H](NC(=O)c2[nH]c(C)cc2C)C(=O)NCc2ccc(N)nc2)cc1 [Example 253, 3,5-Dimethyl-1H-pyrrole-2-carboxylic acid {(S)-1-[(6-amino-pyridin-3-ylmethyl)-carbamoyl]-2-p-tolyl-ethyl}-amide]	7.90
Nc1ccc(CNC(=O)[C@H](Cc2cccc(C(F)(F)F)c2)NC(=O)c2cc3ccccc3[nH]2)cn1 [Example 307, 1H-Indole-2-carboxylic acid [(S)-1-[(6-amino-pyridin-3-ylmethyl)-carbamoyl]-2-(3-trifluoromethyl-phenyl)-ethyl]-amide]	7.66
Cc1cc(C)c(C(=O)N[C@@H](Cc2ccc(C(C)(C)C)cc2)C(=O)NCc2ccc(N)nc2)[nH]1 [Example 256, 3,5-Dimethyl-1H-pyrrole-2-carboxylic acid [(S)-1-[(6-amino-pyridin-3-ylmethyl)-carbamoyl]-2-(4-tert-butyl-phenyl)-ethyl]-amide]	6.91
Cc1nc(N)ccc1CNC(=O)[C@H](CC1CCCC2CCCCC21)NC(=O)[C@H](N)C(C)C (stereo partly drawn) [Example 186, (R)-2-Amino-N-[(S)-1-[(6-amino-2-methyl-pyridin-3-ylmethyl)-carbamoyl]-2-(decahydro-naphthalen-1-yl)-ethyl]-3-methyl-butyramide]	9.09
Nc1ccc(CNC(=O)[C@H](Cc2ccccc2Cl)NC(=O)[C@H]2CCCCN2)cn1 [Example 76, (R)-Piperidine-2-carboxylic acid [(S)-1-[(6-amino-pyridin-3-ylmethyl)-carbamoyl]-2-(2-chloro-phenyl)-ethyl]-amide]	7.66
Cc1cc(C)c(C(=O)N[C@@H](Cc2ccccc2Cl)C(=O)NCc2ccc(N)nc2)[nH]1 [Example 239, 3,5-Dimethyl-1H-pyrrole-2-carboxylic acid [(S)-1-[(6-amino-pyridin-3-ylmethyl)-carbamoyl]-2-(2-chloro-phenyl)-ethyl]-amide]	8.19
Nc1ccc(CNC(=O)[C@H](Cc2ccc(Cl)c(Cl)c2)NC(=O)[C@H](N)CC2CCCCC2)cn1 [Example 68, (R)-2-Amino-N-[(S)-1-[(6-amino-pyridin-3-ylmethyl)-carbamoyl]-2-(3,4-dichloro-phenyl)-ethyl]-3-cyclohexyl-propionamide]	8.04
CCC(C)[C@@H](NC)C(=O)N[C@@H](Cc1cc(F)c(F)cc1F)C(=O)NCc1ccc(N)nc1 (stereo partly drawn) [Example 48, (R)-3-Methyl-2-methylamino-pentanoic acid [(S)-1-[(6-amino-pyridin-3-ylmethyl)-carbamoyl]-2-(2,4,5-trifluoro-phenyl)-ethyl]-amide]	8.10
CC(C)[C@@H](C(=O)N[C@@H](Cc1ccc(F)c(F)c1)C(=O)NCc1ccc(N)nc1)N(C)C(C)C [Example 348, (S)—N-[(S)-1-[(6-Amino-pyridin-3-ylmethyl)-carbamoyl]-2-(3,4-difluoro-phenyl)-ethyl]-2-(isopropyl-methyl-amino)-3-methyl-butyramide]	7.95
CCN1CCC[C@@H]1C(=O)N[C@@H](Cc1cccc(C)c1)C(=O)NCc1ccc(N)nc1 [Example 137, (R)-1-Ethyl-pyrrolidine-2-carboxylic acid {(S)-1-[(6-amino-pyridin-3-ylmethyl)-carbamoyl]-2-m-tolyl-ethyl}-amide]	6.54
CCC(C)[C@@H](N)C(=O)N[C@@H](Cc1ccc(Cl)cc1)C(=O)NCc1ccc(N)nc1 (stereo partly drawn) [Example 36, (R)-2-Amino-3-methyl-pentanoic acid [(S)-1-[(6-amino-pyridin-3-ylmethyl)-carbamoyl]-2-(4-chloro-phenyl)-ethyl]-amide]	8.80
Cn1ccnc1C(=O)N[C@@H](Cc1ccc(F)cc1)C(=O)NCc1ccc(N)nc1 [Example 290, 1-Methyl-1H-imidazole-2-carboxylic acid [(S)-1-[(6-amino-pyridin-3-ylmethyl)-carbamoyl]-2-(4-fluoro-phenyl)-ethyl]-amide]	6.20
